Test results published in patent US10344025B2, “GLS1 inhibitors for treating disease” (Board of Regents, The University of Texas System, priority 2014, dated 2019).
pEC50, pIC50: −log10 of the molar value.

Key:
A549 cells = test: Proliferation Assay (A549 viability, Cell Titer Fluor, 72 hours); type: cell-based; conditions: Homo sapiens, A549, 72 h
Method in brief: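 Cell Titer Fluor fluorescence after 72 h compound treatment (0.5% DMSO, 37 °C, 5% CO2) of A549 cells plated 24 h earlier at 1000/well. Four-parameter logistic fitting gave IC50.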

[1] = target: purified recombinant human GAC (GLS1) (Homo sapiens (Human), UniProt O94925); test: GLS1 Enzymatic Activity Assay (dual-coupled enzymatic assay, resorufin/Amplex UltraRed readout); type: biochemical;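 note: glutamate from GAC coupled via glutamate oxidase and peroxidase to resorufin, read as fluorescence (ex 530, em 590 nm) kinetically or at 20 min, four-parameter logistic IC50 fit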
Chain of purified recombinant human GAC (GLS1) (O94925 other isoform, or with tags, fused parts or gaps): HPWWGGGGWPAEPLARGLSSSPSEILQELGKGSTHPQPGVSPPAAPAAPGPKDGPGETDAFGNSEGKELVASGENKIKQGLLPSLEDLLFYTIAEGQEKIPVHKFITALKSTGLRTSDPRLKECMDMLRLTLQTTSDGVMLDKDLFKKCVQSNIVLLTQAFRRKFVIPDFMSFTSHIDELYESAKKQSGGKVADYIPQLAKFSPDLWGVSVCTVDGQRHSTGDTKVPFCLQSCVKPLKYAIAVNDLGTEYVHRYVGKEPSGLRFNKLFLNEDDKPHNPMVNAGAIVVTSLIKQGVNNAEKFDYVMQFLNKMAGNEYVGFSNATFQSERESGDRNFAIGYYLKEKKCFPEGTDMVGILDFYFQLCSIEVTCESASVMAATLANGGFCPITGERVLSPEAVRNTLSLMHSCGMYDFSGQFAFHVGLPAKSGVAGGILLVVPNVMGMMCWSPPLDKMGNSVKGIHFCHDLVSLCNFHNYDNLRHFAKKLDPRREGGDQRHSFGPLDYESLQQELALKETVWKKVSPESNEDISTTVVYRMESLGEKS

Row | SMILES | pEC50 (A549 cells) | pIC50 [1]
1 | O=C(NCc1ccc(C(F)(F)F)nc1)c1cn(CCCCn2cc(C(=O)NCc3cccc(OC(F)(F)F)c3)nn2)nn1 [Example 82, 1-{4-[4-({[3-(trifluoromethoxy)phenyl]methyl}carbamoyl)-1H-1,2,3-triazol-1-yl]butyl}-N-{[6-(trifluoromethyl)pyridin-3-yl]methyl}-1H-1,2,3-triazole-4-carboxamide] | > 7.00 | > 7.00
2 | O=C(CN1CCC(F)(F)CC1)Nc1cn(CCCCn2cc(C(=O)NCc3cc(Cl)ccc3F)nn2)nn1 [Example 359, N-[(5-chloro-2-fluorophenyl)methyl]-1-(4-{4-[2-(4,4-difluoropiperidin-1-yl)acetamido]-1H-1,2,3-triazol-1-yl}butyl)-1H-1,2,3-triazole-4-carboxamide] | 6.30 to 7.00 | 6.30 to 7.00
3 | O=C(Cc1ccccn1)Nc1nnc(CC[C@@H](F)Cn2cc(C(=O)NCc3cc(OC(F)(F)F)ccc3F)nn2)s1 [Example 198, (R)-1-(2-fluoro-4-(5-(2-(pyridin-2-yl)acetamido)-1,3,4-thiadiazol-2-yl)butyl)-N-(2-fluoro-5-(trifluoromethoxy)benzyl)-1H-1,2,3-triazole-4-carboxamide] | > 7.00 | > 7.00
4 | O=C(Cc1cccc(OC(F)(F)F)c1)Nc1nnc(CCCCn2cc(C(=O)N[C@@H](CO)c3ccccc3)nn2)s1 [Example 21, N-[(1R)-2-hydroxy-1-phenylethyl]-1-[4-(5-{2-[3-(trifluoromethoxy)phenyl]acetamido}-1,3,4-thiadiazol-2-yl)butyl]-1H-1,2,3-triazole-4-carboxamide] | 6.30 to 7.00 | > 7.00
5 | COc1cccc(CNC(=O)c2cn(CCCCn3cc(C(=O)NCc4cc(C(F)(F)F)ccn4)nn3)nn2)c1 [Example 108, 1-[4-(4-{[(3-methoxyphenyl)methyl]carbamoyl}-1H-1,2,3-triazol-1-yl)butyl]-N-{[4-(trifluoromethyl)pyridin-2-yl]methyl}-1H-1,2,3-triazole-4-carboxamide] | 6.30 to 7.00 | > 7.00
6 | O=C(Cc1cc(OC(F)(F)F)ccc1F)Nc1cn(CCC(F)Cn2cc(C(=O)NCc3cc(OC(F)(F)F)ccc3F)nn2)nn1 (stereo not shown) [Example 404, 1-[2-fluoro-4-(4-{2-[2-fluoro-5-(trifluoromethoxy)phenyl]acetamido}-1H-1,2,3-triazol-1-yl)buty]-N-{[2-fluoro-5-(trifluoromethoxy)phenyl]methyl}-1H-1,2,3-triazole-4-carboxamide] | > 7.00 | > 7.00
7 | O=C(Cc1cc(OC(F)(F)F)ccc1F)Nc1cn(CCCCn2cc(C(=O)NCc3cc(Cl)ccc3F)nn2)nn1 [Example 384, N-[(5-chloro-2-fluorophenyl)methyl]-1-[4-(4-{2-[2-fluoro-5-(trifluoromethoxy)phenyl]acetamido}-1H-1,2,3-triazol-1-yl)butyl]-1H-1,2,3-triazole-4-carboxamide] | > 7.00 | > 7.00
8 | Cc1ccc(CNC(=O)c2cn(CCCCn3cc(NC(=O)Cc4cccc(OC(F)(F)F)c4)nn3)nn2)cn1 [Example 299, N-[(6-methylpyridin-3-yl)methyl]-1-[4-(4-{2-[3-(trifluoromethoxy)phenyl]acetamido}-1H-1,2,3-triazol-1-yl)butyl]-1H-1,2,3-triazole-4-carboxamide] | > 7.00 | > 7.00
9 | CNC(=O)c1cn(CC(F)CCc2nnc(C(=O)NCc3ccc(C(F)(F)F)cn3)s2)nn1 (stereo not shown) [Example 189, 5-{3-fluoro-4-[4-(methylcarbamoyl)-1H-1,2,3-triazol-1-yl]butyl}-N-{[5-(trifluoromethyl)pyridin-2-yl]methyl}-1,3,4-thiadiazole-2-carboxamide] | < 5.30 | 5.30 to 6.30
10 | O=C(NCc1cc(C(F)(F)F)ccn1)c1cn(CCCCn2cc(C(=O)NCC3CCOC3)nn2)nn1 (stereo not shown) [Example 86] | < 5.30 | 5.30 to 6.30
11 | Cc1ccc(CC(=O)Nc2cn(CCCCn3cc(C(=O)NCC4CCCCC4)nn3)nn2)cn1 [Example 312, N-(cyclohexylmethyl)-1-(4-{4-[2-(6-methylpyridin-3-yl)acetamido]-1H-1,2,3-triazol-1-yl}butyl)-1H-1,2,3-triazole-4-carboxamide] | 5.30 to 6.30 | 6.30 to 7.00
12 | N#CCNC(=O)c1cn(CCC(F)Cn2cc(C(=O)NCc3cc(OC(F)(F)F)ccc3F)nn2)nn1 (stereo not shown) [Example 168, N-(cyanomethyl)-1-{3-fluoro-4-[4-({[2-fluoro-5-(trifluoromethoxy)phenyl]methyl}carbamoyl)-1H-1,2,3-triazol-1-yl]butyl}-1H-1,2,3-triazole-4-carboxamide] | 6.30 to 7.00 | > 7.00
13 | O=C(NCc1cccc(CO)c1)c1cn(CCCCn2cc(C(=O)NCc3cc(C(F)(F)F)ccn3)nn2)nn1 [Example 113, 1-{4-[4-({[3-(hydroxymethyl)phenyl]methyl}carbamoyl)-1H-1,2,3-triazol-1-yl]butyl}-N-{[4-(trifluoromethyl)pyridin-2-yl]methyl}-1H-1,2,3-triazole-4-carboxamide] | 5.30 to 6.30 | > 7.00
14 | O=C(NCc1cccc(OC(F)(F)F)c1)c1cn(CCCCc2nnc(C(=O)NC3COC3)s2)nn1 [Example 51, N-(oxetan-3-yl)-5-{4-[4-({[3-(trifluoromethoxy)phenyl]methyl}carbamoyl)-1H-1,2,3-triazol-1-yl]butyl}-1,3,4-thiadiazole-2-carboxamide] | 5.30 to 6.30 | 6.30 to 7.00
15 | O=C(NCc1cc(C(F)(F)F)ccn1)c1cn(CCCCn2cc(C(=O)NCC3CCCCO3)nn2)nn1 (stereo not shown) [Example 114] | 5.30 to 6.30 | 5.30 to 6.30
16 | O=C(NCc1cccc(C(F)(F)F)c1)c1cn(CCCCn2cc(C(=O)NCC3CCCOC3)nn2)nn1 (stereo not shown) [Example 119, N-(oxan-3-ylmethyl)-1-{4-[4-({[3-(trifluoromethyl)phenyl]methyl}carbamoyl)-1H-1,2,3-triazol-1-yl]butyl}-1H-1,2,3-triazole-4-carboxamide] | 6.30 to 7.00 | 6.30 to 7.00

Now from value to compound:

Row | pEC50 (A549 cells) | pIC50 [1] | SMILES
17 | 5.30 to 6.30 | 6.30 to 7.00 | O=C(NCCC(F)(F)F)c1cn(CC(F)CCc2nnc(C(=O)NCc3cc(C(F)(F)F)ccn3)s2)nn1 (stereo not shown) [Example 510, 5-(3-fluoro-4-{4-[(3,3,3-trifluoropropyl)carbamoyl]-1H-1,2,3-triazol-1-yl}butyl)-N-{[4-(trifluoromethyl)pyridin-2-yl]methyl}-1,3,4-thiadiazole-2-carboxamide]
18 | 6.30 to 7.00 | > 7.00 | O=C(Cc1cccc(OC(F)(F)F)c1)Nc1nnc(CCC(F)Cn2cc(C(=O)NCc3ncccc3F)nn2)s1 (stereo not shown) [Example 537, 1-[2-fluoro-4-(5-{2-[3-(trifluoromethoxy)phenyl]acetamido}-1,3,4-thiadiazol-2-yl)butyl]-N-[(3-fluoropyridin-2-yl)methyl]-1H-1,2,3-triazole-4-carboxamide]
19 | > 7.00 | > 7.00 | CNC(=O)c1cn(CC(F)CCc2nnc(NC(=O)Cc3cncc(-c4cccc(OC(F)(F)F)c4)c3)s2)nn1 (stereo not shown) [Example 195, 1-(2-fluoro-4-(5-(2-(5-(3-(trifluoromethoxy)phenyl)pyridin-3-yl)acetamido)-1,3,4-thiadiazol-2-yl)butyl)-N-methyl-1H-1,2,3-triazole-4-carboxamide]
20 | 6.30 to 7.00 | > 7.00 | Cc1ccc(CNC(=O)c2cn(CC(F)CCc3nnc(C(=O)NCc4cccc(OC(F)(F)F)c4)s3)nn2)cn1 (stereo not shown) [Example 420, 5-[3-fluoro-4-(4-{[(6-methylpyridin-3-yl)methyl]carbamoyl}-1H-1,2,3-triazol-1-yl)butyl]-N-{[3-(trifluoromethoxy)phenyl]methyl}-1,3,4-thiadiazole-2-carboxamide]
21 | > 7.00 | > 7.00 | COc1cccc(CNC(=O)c2cn(CCC(F)Cn3cc(C(=O)NCc4cc(C(F)(F)F)ccn4)nn3)nn2)c1 (stereo not shown) [Example 468, 1-[2-fluoro-4-(4-{[(3-methoxyphenyl)methyl]carbamoyl}-1H-1,2,3-triazol-1-yl)butyl]-N-{[4-(trifluoromethyl)pyridin-2-yl]methyl}-1H-1,2,3-triazole-4-carboxamide]
22 | > 7.00 | > 7.00 | O=C(Cc1cc(OC(F)(F)F)ccc1F)Nc1cn(CCC(F)Cn2cc(C(=O)NCc3cccc(OC(F)(F)F)c3)nn2)nn1 (stereo not shown) [Example 416, 1-[2-fluoro-4-(4-{2-[2-fluoro-5-(trifluoromethoxy)phenyl]acetamido}-1H-1,2,3-triazol-1-yl)butyl]-N-{[3-(trifluoromethoxy)phenyl]methyl}-1H-1,2,3-triazole-4-carboxamide]
23 | > 7.00 | > 7.00 | Cc1ccc(CNC(=O)c2nnc(CCC(F)Cn3cc(C(=O)NCc4cc(OC(F)(F)F)ccc4F)nn3)s2)cn1 (stereo not shown) [Example 443, 5-{3-fluoro-4-[4-({[2-fluoro-5-(trifluoromethoxy)phenyl]methyl}carbamoyl)-1H-1,2,3-triazol-1-yl]butyl}-N-[(6-methylpyridin-3-yl)methyl]-1,3,4-thiadiazole-2-carboxamide]
24 | > 7.00 | > 7.00 | O=C(Cc1cccc(OC(F)(F)F)c1)Nc1nnc(CCC(F)Cn2cc(C(=O)NCc3ccc(C(F)(F)F)nc3)nn2)s1 (stereo not shown) [Example 498, 1-[2-fluoro-4-(5-{2-[3-(trifluoromethoxy)phenyl]acetamido}-1,3,4-thiadiazol-2-yl)butyl]-N-{[6-(trifluoromethyl)pyridin-3-yl]methyl}-1H-1,2,3-triazole-4-carboxamide]
25 | 6.30 to 7.00 | > 7.00 | CNC(=O)c1cn(CC(F)CCc2nnc(NC(=O)Cc3cccc(OC(F)(F)F)c3)s2)nn1 (stereo not shown) [Example 497, 1-(2-fluoro-4-(5-(2-(3-(trifluoromethoxy)phenyl)acetamido)-1,3,4-thiadiazol-2-yl)butyl)-N-methyl-1H-1,2,3-triazole-4-carboxamide]
26 | > 7.00 | > 7.00 | O=C(NCc1cncc(C(F)(F)F)c1)c1cn(CC(F)CCc2nnc(C(=O)NCc3cccc(OC(F)(F)F)c3)s2)nn1 (stereo not shown) [Example 482, 5-{3-fluoro-4-[4-({[5-(trifluoromethyl)pyridin-3-yl]methyl}carbamoyl)-1H-1,2,3-triazol-1-yl]butyl}-N-{[3-(trifluoromethoxy)phenyl]methyl}-1,3,4-thiadiazole-2-carboxamide]
